Results on 3 molecules are retold here after ChEMBL document CHEMBL1124665, “Is there a case for P-450 inhibitors in cancer treatment?” (J Med Chem, 1989).

The Ki is the equilibrium dissociation constant of an inhibitor or competing ligand from its target. A higher Ki goes with weaker binding. As usually defined, the kinact is the maximal first-order rate at which the target is inactivated. One may read the ED50 as the dose that gives a 50% effect, or the effect in half of the subjects. High values mean weaker potency, low ones greater potency.

Assay [1] addresses T1, Aromatase (Homo sapiens, UniProt P11511).
T1 sequence (P11511 whole entry): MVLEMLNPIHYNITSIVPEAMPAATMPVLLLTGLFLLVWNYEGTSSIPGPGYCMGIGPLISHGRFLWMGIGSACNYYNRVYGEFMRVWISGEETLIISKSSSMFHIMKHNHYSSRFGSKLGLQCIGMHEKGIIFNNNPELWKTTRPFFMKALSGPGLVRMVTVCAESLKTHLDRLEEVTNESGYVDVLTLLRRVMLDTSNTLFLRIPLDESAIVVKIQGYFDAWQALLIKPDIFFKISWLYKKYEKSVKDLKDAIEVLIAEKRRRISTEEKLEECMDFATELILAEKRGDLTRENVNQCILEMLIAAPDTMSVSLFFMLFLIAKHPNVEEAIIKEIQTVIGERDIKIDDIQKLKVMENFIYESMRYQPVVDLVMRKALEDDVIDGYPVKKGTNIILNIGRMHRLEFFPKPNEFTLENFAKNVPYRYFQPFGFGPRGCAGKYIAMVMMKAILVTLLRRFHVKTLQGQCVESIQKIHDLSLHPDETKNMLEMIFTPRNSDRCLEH
As to the kind of experiment: In vitro inhibition of Cytochrome P450 19A1.

Assay [2] addresses T1, Aromatase. As to the kind of experiment: In vitro inactivation of human placental Cytochrome P450 19A1.
Assay [3] has as its target T1, Aromatase. The experiment in a line: Effective dose for inhibition of extragonadal estrogen production in baboons. The class given is functional. To be noted: papio hamadryas; target entry is the homologue from another species.

`CC12CCC3C(CCC4=C(O)C(=O)CCC43C)C1CCCC2=O` (configuration not stated) showed a Ki in assay [1] of 10.2 nM. Besides, the kinact in assay [2] was 0.00041 s⁻¹.

On to `C#CC[C@]12CCC(=O)C=C1CC[C@@H]1[C@@H]2CC[C@]2(C)C(=O)CC[C@@H]12` [PLOMESTANE], for which it took a dose of 4 mg/kg to reach the 50% effect level in assay [3] (ED50). The molecule further registered a Ki in assay [1] of 4 nM. For the same molecule, the kinact in assay [2] worked out at 0.0011 s⁻¹.

`C[C@]12C=CC(=O)C=C1CC[C@@H]1[C@@H]2CC[C@]2(C)OC(=O)CC[C@@H]12` [TESTOLACTONE] yielded a Ki in assay [1] of 35000 nM. In addition, the kinact in assay [2] came out at 0.00036 s⁻¹.
